Experimental data as given in patent US20170095524A1, “METHODS FOR MODULATING CANCER CELLS AND STEM CELLS” (The Scripps Research Institute, priority 2014, published 2017).

Tests used:
RBM3 = experiment: 2D Western blot of RBM3 phosphorylation forms in P19 cells after calpain inhibition; assay type: cell-based
From the text: (Top) 2D Western blot of RBM3 in vehicle-treated (DMSO) P19 cells. Red arrows point to exogenously expressed mutant of RBM3 (A4F) with 4 C-term Y to F mutations, and to two phosphorylated endogenous isoforms of RBM3 that differ by a single arginine (Arg). […] A basic spot not present in the control condition appears that corresponds to the pI of dephosphorylated Arg+RBM3, the form of RBM3 that preferentially associates with pre-miRNAs. We further observed that calpain inhibition rescues expression of dephosphorylated RBM3 in pluripotent cells. Calpains are Ca^++-activated cysteine proteases that regulate diverse cellular processes. Calpain's role in pluripotent and cancerous cells prompted us to test whether it regulates the expression of the dephosphorylated form of RBM3 in pluripotent cells (and accounts for the difficulty in expressing non-phosphorylatable mutants in these cells).

LIN28 = experiment: Western blot of LIN28 levels in P19 cells treated with IGF1R and calpain inhibitors; assay type: cell-based; conditions: acute treatment (~12 hrs)
From the text: FIGS. 4A-4B show regulation of LIN28 levels by RBM3, IGF1R, and calpain. (A) Western blot showing the effect of RBM3 knock-down (siRNA) on LIN28 levels in P19 cells treated at the neurosphere stage with (or without) retinoic acid (RA) to induce neural differentiation. RBM3 knock-down increases LIN28 and blocks the ability of RA to decrease LIN28. (B) Western blots showing reduction of LIN28 in P19 cells following acute treatment (˜12 hrs) with inhibitors of IGF1R and calpain (each of which increases the expression of the dephosphorylated form of RBM3). […] HDAC is a loading control.
FIGS. 7A-7D show results from additional studies of reducing LIN28 levels via synergistic dual inhibitor strategies. (A & B) Graphs of changes in RBM3 and LIN28 expression in P19 cells treated with the IGF1R inhibitor PPP (10 nM), the calpain inhibitor calpeptin (Cpep, 50 μM), and a combination of PPP plus Cpep (A: n=10-14; B: n=20-24). (C) (top panels) Example of Westerns of LIN28 in P19 cells exposed to PPP, Cpep, and PPP+Cpep; (bottom panels) Example of Westerns of LIN28 and RBM3 in samples from P19 cells treated in triplicate with control and Cpep+PPP conditions. (D) Fold change in let-7 family miRNAs and miR-21 in P19 cells treated with PPP+Cpep as measured by qRT-PCR (n=4). All treatments were for 36 hours. […]

Compound | RBM3 pI distribution (2D Western); basic spot corresponding to dephosphorylated Arg+RBM3 appears (RBM3; P19 cells incubated with calpain inhibitor vs DMSO vehicle) | levels of a non-phosphorylatable mutant of RBM3 (RBM3; pluripotent P19 cells) | levels of the endogenous dephosphorylated form of RBM3 that binds pre-miRNAs (dephos Arg+) (RBM3; pluripotent P19 cells) | LIN28 levels (Western blot) (LIN28; Cpep 50 μM) | LIN28 levels (Western blot) (LIN28; PPP 10 nM)
CCCC[C@@H](C=O)NC(=O)[C@H](CC(C)C)NC(=O)OCc1ccccc1 [calpeptin] | shift in RBM3 pI distribution | increased | increased | reduces LIN28 levels | –
COc1cc([C@@H]2c3cc4c(cc3[C@H](O)[C@H]3COC(=O)[C@@H]23)OCO4)cc(OC)c1OC [picropodophyllin] | – | – | – | – | reduces LIN28 levels
